# Data as given in ChEMBL document CHEMBL1201862, “PubChem BioAssay data set” (2004).
# Calls of active or inactive are those of the source.
# How the values were obtained:
# [1] = viability of Vero 76 cells – cell-based, set 3, cytotoxicity control, dose response (AID 602439); assay type: functional; conditions: Venezuelan equine encephalitis virus
# [2] = target: T1, Microphthalmia-associated transcription factor (Homo sapiens, UniProt O75030); assay: reducers of TRPM1 reporter luminescence, concentration series – cell-based, SK-MEL-5, cherry-picked, set 3, MITF inhibitor project, dose response (AID 493073); assay type: functional;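 further: SK-MEL-5 melanoma cells with luciferase driven by the MITF target TRPM1 promoter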
# T1 sequence (O75030 whole entry): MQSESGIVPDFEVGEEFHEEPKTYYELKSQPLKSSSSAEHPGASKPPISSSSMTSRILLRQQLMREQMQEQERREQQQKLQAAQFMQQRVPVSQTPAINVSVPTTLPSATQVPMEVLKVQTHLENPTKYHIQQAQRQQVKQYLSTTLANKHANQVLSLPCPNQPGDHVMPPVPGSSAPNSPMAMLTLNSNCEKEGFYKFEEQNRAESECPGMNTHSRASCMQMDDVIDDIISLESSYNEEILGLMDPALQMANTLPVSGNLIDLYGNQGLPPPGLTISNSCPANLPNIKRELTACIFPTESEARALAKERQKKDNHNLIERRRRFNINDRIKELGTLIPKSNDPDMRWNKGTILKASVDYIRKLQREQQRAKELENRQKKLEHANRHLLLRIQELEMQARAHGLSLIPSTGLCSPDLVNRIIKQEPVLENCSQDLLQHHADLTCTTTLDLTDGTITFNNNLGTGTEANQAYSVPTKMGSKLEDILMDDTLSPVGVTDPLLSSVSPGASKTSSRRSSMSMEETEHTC
# [3] = reduction of Shn3 3'UTR-driven luciferase in osteoblasts – cell-based, Clone20 osteoblasts, firefly luciferase, cherry-picked, dose response (AID 624132); assay type: functional;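 further: firefly luciferase luminescence from reporter carrying the Shn3 3'UTR in osteoblasts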
# [4] = loss of viability in HepG2 cells – cell-based, CellTiter-Glo, cherry-picked, cytotoxicity control for Shn3 inhibitor project, dose response (AID 624134); assay type: functional
# [5] = non-specific 3'UTR reporter inhibition in Clone20-Shn3RL – cell-based, Renilla luciferase, cherry-picked, counter-screen for Shn3 inhibitor project, dose response (AID 624133); assay type: functional
# [6] = Shn3 3'UTR reporter signal decrease – cell-based, Clone20 osteoblasts, firefly luciferase, cherry-pick, set 2, Schnurri-3 inhibitor project, dose response (AID 720490); assay type: functional;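 further: actives lower the luminescence signal as inhibitors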
# [7] = system: Streptococcus sp. 'group A'; assay: Streptococcus pyogenes SK(-)GAS viability under kanamycin – luminescence, BacTiterGlo, confirmation, counter-screen for streptokinase expression inhibitor project, dose response (AID 1900); assay type: functional, organism-based
# Streptokinase A = target: T2, Streptokinase A (Streptococcus pyogenes serotype M1, UniProt P10520); assay: viability-normalized secreted streptokinase activity reduction – plasminogen activation absorbance, OD405, dose response (AID 1914); assay type: functional, Streptococcus pyogenes M1 GAS;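 further: secreted streptokinase activity via plasminogen activation per viability signal from cell pellet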
# T2 sequence (P10520 whole entry): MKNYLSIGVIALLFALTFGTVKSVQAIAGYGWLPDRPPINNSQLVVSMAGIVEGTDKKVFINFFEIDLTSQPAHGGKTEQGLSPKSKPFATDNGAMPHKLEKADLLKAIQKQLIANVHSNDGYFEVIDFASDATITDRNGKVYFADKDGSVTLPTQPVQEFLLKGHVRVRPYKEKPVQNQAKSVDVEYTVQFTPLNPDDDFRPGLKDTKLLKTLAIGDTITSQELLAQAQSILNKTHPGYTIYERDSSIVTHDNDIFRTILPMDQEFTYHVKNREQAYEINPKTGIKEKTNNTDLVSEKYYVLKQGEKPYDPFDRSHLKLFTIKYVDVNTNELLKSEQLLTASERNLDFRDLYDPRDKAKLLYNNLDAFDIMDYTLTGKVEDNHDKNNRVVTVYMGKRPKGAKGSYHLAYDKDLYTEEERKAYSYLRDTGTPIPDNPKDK
# Streptococcus = assay: GAS UMAA2166 growth inhibition – luminescence, BacTiterGlo, counter-screen for streptokinase expression inhibitor project, dose response (AID 1915); assay type: functional, organism-based;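 further: potency for reduction of bacterial viability or growth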
# INS1 = assay: INS-1E survival protection against cytokine death – cell-based, luminescence, retest, dose response (AID 449756); assay type: functional; conditions: Rattus norvegicus;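 further: cell death triggered by IL-1 beta plus TNF-alpha plus IFN-gamma mixture; protective hits raise ATP signal compared with cytokine alone wells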
# [8] = viability loss in HepG2 hepatoma cells – cell-based, ATP luminescence, cherry-pick, activator set 2, cytotoxicity control, dose response (AID 1053143); assay type: functional
# Caspase-3 = target: T3, Caspase-3 (Homo sapiens, UniProt P42574); assay type: functional;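 further: Dose-response selectivity test against caspase-3 for candidate inhibitors of sentrin-specific proteases (SENPs)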
# T3 sequence (P42574 whole entry): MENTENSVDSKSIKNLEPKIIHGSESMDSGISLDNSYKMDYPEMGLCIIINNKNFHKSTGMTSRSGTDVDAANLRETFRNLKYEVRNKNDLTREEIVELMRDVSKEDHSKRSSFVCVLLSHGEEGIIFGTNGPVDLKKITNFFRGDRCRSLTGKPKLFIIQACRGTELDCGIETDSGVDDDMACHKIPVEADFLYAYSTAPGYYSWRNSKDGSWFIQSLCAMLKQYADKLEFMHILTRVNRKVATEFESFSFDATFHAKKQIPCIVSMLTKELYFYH
# [9] = target: T4, Sentrin-specific protease 7 (Homo sapiens, UniProt Q9BQF6); assay type: functional;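 further: Luminescence-based dose-response confirmation of ultra-high-throughput screening hits, measuring inhibition of SENP7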
# T4 sequence (Q9BQF6 whole entry): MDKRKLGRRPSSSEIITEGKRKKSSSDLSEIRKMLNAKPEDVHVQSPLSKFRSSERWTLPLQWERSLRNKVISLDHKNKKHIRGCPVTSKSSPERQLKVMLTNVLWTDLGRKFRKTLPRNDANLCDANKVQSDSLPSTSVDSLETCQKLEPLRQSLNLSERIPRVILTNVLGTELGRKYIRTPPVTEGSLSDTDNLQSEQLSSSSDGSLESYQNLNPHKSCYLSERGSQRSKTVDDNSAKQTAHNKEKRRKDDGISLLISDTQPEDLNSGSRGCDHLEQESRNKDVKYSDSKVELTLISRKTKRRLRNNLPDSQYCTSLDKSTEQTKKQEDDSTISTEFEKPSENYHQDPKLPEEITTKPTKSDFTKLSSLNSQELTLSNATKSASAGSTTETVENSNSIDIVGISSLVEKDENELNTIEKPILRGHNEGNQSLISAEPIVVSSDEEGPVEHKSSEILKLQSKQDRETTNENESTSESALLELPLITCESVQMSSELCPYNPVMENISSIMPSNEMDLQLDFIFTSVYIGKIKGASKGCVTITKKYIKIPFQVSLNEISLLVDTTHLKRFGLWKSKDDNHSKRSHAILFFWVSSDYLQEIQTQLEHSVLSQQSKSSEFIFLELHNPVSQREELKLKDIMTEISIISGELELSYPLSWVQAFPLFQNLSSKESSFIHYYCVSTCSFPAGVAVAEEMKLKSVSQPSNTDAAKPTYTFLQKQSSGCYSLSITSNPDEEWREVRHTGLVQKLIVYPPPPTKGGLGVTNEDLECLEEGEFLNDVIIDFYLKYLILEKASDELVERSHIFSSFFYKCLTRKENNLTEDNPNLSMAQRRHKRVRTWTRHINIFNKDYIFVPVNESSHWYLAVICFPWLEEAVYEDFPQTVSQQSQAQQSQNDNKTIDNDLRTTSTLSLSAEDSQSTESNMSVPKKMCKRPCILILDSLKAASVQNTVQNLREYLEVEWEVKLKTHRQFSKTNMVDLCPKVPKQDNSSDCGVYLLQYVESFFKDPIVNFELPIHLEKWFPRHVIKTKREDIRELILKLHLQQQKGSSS
# [10] = target: T5, Sentrin-specific protease 6 (Homo sapiens, UniProt Q9GZR1); assay type: functional;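 further: Luminescence-based dose-response confirmatory assay of SENP6 inhibition, following up an ultra-high-throughput screen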
# T5 sequence (Q9GZR1 whole entry): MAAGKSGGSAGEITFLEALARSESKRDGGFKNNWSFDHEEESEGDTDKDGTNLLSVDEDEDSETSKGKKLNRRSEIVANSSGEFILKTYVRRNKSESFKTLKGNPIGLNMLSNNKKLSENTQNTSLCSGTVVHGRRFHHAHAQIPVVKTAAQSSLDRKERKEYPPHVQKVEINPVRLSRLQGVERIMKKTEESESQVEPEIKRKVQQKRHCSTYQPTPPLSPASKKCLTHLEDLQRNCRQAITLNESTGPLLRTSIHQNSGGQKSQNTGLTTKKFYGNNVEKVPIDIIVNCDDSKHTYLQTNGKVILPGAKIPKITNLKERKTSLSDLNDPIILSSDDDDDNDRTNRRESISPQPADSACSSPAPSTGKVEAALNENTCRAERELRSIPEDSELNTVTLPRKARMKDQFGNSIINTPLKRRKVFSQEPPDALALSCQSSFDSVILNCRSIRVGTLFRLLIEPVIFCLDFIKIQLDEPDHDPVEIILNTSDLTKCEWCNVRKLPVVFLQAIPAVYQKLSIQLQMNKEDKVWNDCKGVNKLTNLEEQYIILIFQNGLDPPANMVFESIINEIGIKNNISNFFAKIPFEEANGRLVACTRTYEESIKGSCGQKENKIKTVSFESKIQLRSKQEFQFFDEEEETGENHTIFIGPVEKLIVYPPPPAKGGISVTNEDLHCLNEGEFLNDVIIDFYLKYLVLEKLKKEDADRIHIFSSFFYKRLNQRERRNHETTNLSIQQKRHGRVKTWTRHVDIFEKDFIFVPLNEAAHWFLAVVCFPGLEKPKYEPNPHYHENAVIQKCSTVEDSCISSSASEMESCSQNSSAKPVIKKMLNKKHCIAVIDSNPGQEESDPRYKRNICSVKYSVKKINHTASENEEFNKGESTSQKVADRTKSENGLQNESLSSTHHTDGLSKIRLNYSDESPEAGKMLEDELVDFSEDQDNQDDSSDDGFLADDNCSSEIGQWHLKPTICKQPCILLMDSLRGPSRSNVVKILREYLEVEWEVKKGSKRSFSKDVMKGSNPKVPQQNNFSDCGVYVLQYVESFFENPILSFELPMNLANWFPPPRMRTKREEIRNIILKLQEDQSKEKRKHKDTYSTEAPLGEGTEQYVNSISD
# [11] = target: T6, Sentrin-specific protease 8 (Homo sapiens, UniProt Q96LD8); assay type: functional;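 further: luminescence read-out of SENP8 inhibition, dose-response confirmation following an ultra-high-throughput screen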
# T6 sequence (Q96LD8 whole entry): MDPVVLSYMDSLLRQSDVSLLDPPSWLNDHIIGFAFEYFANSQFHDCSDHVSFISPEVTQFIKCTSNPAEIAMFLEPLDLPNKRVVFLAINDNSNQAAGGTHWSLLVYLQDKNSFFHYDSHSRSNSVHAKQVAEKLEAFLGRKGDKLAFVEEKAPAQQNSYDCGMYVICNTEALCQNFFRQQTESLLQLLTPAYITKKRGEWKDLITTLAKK
# [12] = target: Dual specificity tyrosine-phosphorylation-regulated kinase 1A (Rattus norvegicus, UniProt Q63470); assay type: biochemical, Homo sapiens
# Caspase-6 = Caspase-6 (Homo sapiens, UniProt P55212); assay: inhibition of CASP6 peptide cleavage – biochemical, VEID-R110 fluorescence, cherry-pick, dose response (AID 720632)
# Kallikrein-7 = Kallikrein-7 (Homo sapiens, UniProt P49862); assay: Fluorescence Intensity-based biochemical primary high throughput dose response assay to identify activators of kallikrein-7 (K7) zymogen.
# [13] = target: Disintegrin and metalloproteinase domain-containing protein 17 (Homo sapiens, UniProt P78536); assay: exosite inhibitors of ADAM17, dose response, biochemical (AID 743260)
# [14] = inhibition of ADAM10 peptide cleavage – biochemical, FRET peptide substrate, recombinant human ADAM10, selectivity assay for ADAM17 exosite inhibitor project, dose response (AID 743259);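 further: ADAM10 enzyme cleaving a FRET peptide substrate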
# HeLa = assay: viability loss in HeLa cells – cell-based, ATP luminescence, cherry-pick samples, cytotoxicity control, dose response (AID 687004); assay type: functional; conditions: Homo sapiens
# HEK293 = assay: viability loss in HEK293T cells – cell-based, ATP luminescence, cherry-pick samples, cytotoxicity control, dose response (AID 687005); assay type: functional; conditions: Homo sapiens;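 further: cells exposed to compound for 48 hours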
# [15] = HEK293 Cytotoxicity Assay Measured in Cell-Based System Using Plate Reader - 7071-01_Inhibitor_Dose_CherryPick_Activity_Set2.; assay type: functional
# [16] = Late stage assay provider results from the probe development effort to identify selective inhibitors of heat shock protein 90 (HSP90): Absorbance-based cell proliferation assay in SKBR3 cells.; assay type: functional; conditions: SK-BR-3
# [17] = Late stage assay provider results from the probe development effort to identify selective inhibitors of heat shock protein 90 (HSP90): Absorbance-based cell proliferation assay in MCF7 cells.; assay type: functional
# [18] = target: Protein disulfide-isomerase (Homo sapiens, UniProt P07237); assay: inhibition of PDI-mediated insulin reduction – biochemical, turbidity, dry powder samples, set 2, confirmation (AID 652146)
# [19] = viability loss in MITF-independent A375 cells – cell-based, CellTiter-Glo luminescence, dry powder, set 2, counter-screen for MITF inhibitor project, dose response (AID 624489); assay type: functional; conditions: A-375;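 further: actives are compounds lowering A375 viability meaning general cytotoxicity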
# [20] = melanocyte viability loss, MITF-dependent cells, cell-based, plate reader, dry powder, cytotoxicity control, dose response (AID 651920); assay type: functional
# Chain of Disintegrin and metalloproteinase domain-containing protein 17 (P78536 whole entry, the tested form may be a part): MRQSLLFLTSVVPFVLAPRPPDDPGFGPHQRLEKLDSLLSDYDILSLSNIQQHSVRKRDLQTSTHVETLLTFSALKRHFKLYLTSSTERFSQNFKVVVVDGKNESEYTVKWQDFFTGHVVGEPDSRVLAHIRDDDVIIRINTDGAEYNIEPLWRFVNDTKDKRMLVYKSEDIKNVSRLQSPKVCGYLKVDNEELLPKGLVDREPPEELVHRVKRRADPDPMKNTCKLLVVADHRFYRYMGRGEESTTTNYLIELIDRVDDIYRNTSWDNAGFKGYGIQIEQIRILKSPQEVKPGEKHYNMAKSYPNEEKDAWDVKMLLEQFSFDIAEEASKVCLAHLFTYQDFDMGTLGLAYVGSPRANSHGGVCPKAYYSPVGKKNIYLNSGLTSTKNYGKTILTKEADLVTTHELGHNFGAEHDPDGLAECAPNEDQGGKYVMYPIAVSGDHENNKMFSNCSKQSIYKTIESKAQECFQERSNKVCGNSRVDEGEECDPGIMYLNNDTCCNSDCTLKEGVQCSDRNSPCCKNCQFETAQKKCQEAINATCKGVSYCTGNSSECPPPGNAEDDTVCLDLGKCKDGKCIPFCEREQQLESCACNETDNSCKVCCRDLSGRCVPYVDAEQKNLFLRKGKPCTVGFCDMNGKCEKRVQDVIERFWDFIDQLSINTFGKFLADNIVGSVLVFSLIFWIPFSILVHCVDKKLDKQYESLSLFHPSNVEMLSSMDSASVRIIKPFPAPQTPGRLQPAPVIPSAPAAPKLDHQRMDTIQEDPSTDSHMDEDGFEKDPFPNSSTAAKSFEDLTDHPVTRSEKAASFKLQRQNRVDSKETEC
# Chain of Caspase-6 (P55212 24-179 limits assumed): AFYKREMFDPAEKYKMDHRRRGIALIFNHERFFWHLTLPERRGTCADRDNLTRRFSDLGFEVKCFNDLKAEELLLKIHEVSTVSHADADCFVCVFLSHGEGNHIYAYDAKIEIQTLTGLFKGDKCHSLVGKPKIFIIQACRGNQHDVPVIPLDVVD
# Chain of Caspase-6 (P55212 194-293 limits assumed): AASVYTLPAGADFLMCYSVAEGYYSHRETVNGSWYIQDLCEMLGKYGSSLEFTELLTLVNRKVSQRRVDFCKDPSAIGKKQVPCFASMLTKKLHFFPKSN
# Chain of Kallikrein-7 (P49862 whole entry, the tested form may be a part): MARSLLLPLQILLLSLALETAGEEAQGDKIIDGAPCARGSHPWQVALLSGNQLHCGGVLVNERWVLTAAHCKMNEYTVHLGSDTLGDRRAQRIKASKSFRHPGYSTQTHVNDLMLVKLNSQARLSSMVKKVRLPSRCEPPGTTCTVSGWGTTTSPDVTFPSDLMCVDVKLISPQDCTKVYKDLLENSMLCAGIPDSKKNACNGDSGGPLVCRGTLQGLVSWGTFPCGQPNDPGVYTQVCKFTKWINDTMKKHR
# Chain of Protein disulfide-isomerase (P07237 whole entry): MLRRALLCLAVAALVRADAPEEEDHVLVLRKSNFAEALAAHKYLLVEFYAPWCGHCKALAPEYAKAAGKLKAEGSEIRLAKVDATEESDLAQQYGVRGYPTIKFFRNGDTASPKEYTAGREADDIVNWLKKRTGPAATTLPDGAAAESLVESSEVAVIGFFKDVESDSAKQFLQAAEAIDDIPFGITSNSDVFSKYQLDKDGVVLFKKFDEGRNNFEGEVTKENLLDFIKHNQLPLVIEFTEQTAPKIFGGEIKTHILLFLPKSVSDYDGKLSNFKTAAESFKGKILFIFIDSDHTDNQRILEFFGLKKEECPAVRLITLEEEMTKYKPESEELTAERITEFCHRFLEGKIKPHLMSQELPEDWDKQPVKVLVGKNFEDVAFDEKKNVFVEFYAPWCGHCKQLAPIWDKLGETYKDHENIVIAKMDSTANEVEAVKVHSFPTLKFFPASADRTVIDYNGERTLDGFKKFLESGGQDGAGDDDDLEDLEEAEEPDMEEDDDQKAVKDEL
structure (smiles),measurement,setting,value
O=C(Nc1nc2c(s1)CCCC2)c1cccs1,CC50,[1],> 50 µM (active)
COc1ccccc1NS(=O)(=O)c1cc(NC(=O)c2ccc(Cl)nc2)ccc1Cl,AC50,[2],11.3 µM (active)
same,AC50,[3],3.12 µM (active)
same,AC50,[4],56.2 µM (active)
same,AC50,[5],21 µM (active)
same,AC50,[6],3.71 µM (active)
CCOC(=O)c1sc(NC(=O)Nc2cccc(Cl)c2)cc1C,EC50,[7],4.86 µM (active)
same,EC50,Streptokinase A,11.2 µM (active)
same,EC50,Streptococcus,4.1 µM (active)
same,AC50,INS1,4.57 µM (active)
same,AC50,[8],14.7 µM (active)
COc1cc2c(C#N)c(N3CCCC3)nc(N)c2c(N)n1,IC50,Caspase-3,7.35 µM (active)
same,IC50,[9],2.67 µM (active)
same,IC50,[10],2.24 µM (active)
same,IC50,[11],2.64 µM (active)
same,AC50,[12],5.72 µM (active)
same,AC50,Caspase-6,12 µM (active)
COc1cc2c(cc1OC)C1CCN3C(=O)CCC3N1CC2 (stereo not drawn),EC50,Kallikrein-7,21.1 µM (inactive)
Cc1ccc(CC2(c3ccccc3)NC(=O)NC2=O)cc1 (stereo not drawn),IC50,[13],18.6 µM (inactive)
same,IC50,[14],> 69.4 µM (inactive)
CCCC#Cc1ccc2c(c1)O[C@H](CN(C)CCC)[C@H](C)CN([C@@H](C)CO)S2(=O)=O,AC50,HeLa,42.6 µM (active)
same,AC50,HEK293,14.6 µM (active)
same,AC50,[15],14.6 µM (active)
COc1ccccc1/N=N/c1c(O)[nH]c(=O)c(C#N)c1C,IC50,[16],> 100 µM (inactive)
same,IC50,[17],> 100 µM (inactive)
C=CCOc1ccc(CN2CCC(CCOc3ccccc3)(C(=O)N3CCCC3)CC2)cc1Cl,AC50,[18],> 30 µM (inactive)
O=C(NC1=C(N2CCN(c3ccccc3)CC2)C(=O)c2ccccc2C1=O)c1ccccc1,AC50,[19],> 70 µM (inactive)
same,AC50,[20],> 70 µM (inactive)
